The text below walks through data of US11413280B2 (The Board of Trustees of the Leland Stanford Junior …, priority 2017, dated 2022).

Each structure is given as a SMILES string.

One assay deals with miR27a. Kind of assay: Relative miR27a expression in PAECs (qPCR). Format: cell-based, human. The settings on record: 15 μM Enzastaurin 24 hours. In general terms: In qPCR the cycle at which signal appears reflects the starting amount.
In the next assay the test system is FHIT. Kind of assay: Relative FHIT mRNA expression in PAECs (qPCR). Format: cell-based, human. The settings on record: PAEC, 24 hours, low doses (5-15 uM), FIG. 14. How it is done:
(§1) Human PAEC (Promocell) or human PASMC (Promocell) were grown as monolayers in gelatin-coated dishes in a commercial EC (Promocell) or SMC (Promocell) media, respectively. Cells were passaged at 1:3 ratios and used for experiments from passages 3-8. Transformed lymphocytes (i.e., lymphoblasts) were cultured in RPMI 1640 with 10-15% FBS.
(§2) FHIT expression was modulated by RNAi in PA endothelial cells (PAEC). A pool of 4 siRNAs for BMPR2, FHIT, LCK or a non-targeting control pool (Dharmacon) were transfected into PAECs using the RNAi Max kit (Invitrogen) for 48 hours. mRNA knockdown efficiency was determined by qPCR.
(§3) For mRNA, total RNA was extracted from whole lung tissue using the RNAeasy Plus Kit (Qiagen) and reverse transcribed into cDNA using random primers with the Taqman cDNA reverse transcription Kit (Applied Biosciences) according to the manufacturer's instructions. For miR, total miR was isolated from whole lung tissue using the Taqman miRNA ABC purification Kit (Applied Biosciences) and was reverse transcribed using specific primers and the Taqman microRNA reverse transcription kit (Applied Biosciences). mRNA and miR expression levels were quantified using Taqman primer/probe sets for the target and normalized to a housekeeping control (mRNA: GAPDH; miR: RNU48). […]

The subject of another assay is PKC. Kind of assay: PKC and p-PKC protein expression in lung tissue of SuHx rats (immunoblot). Format: in vivo, rat. The settings on record: whole lung tissue, 5 mg/kg daily oral gavage. How it is done:
Experimental PAH was induced in male Sasco Sprague Dawley rats by subcutaneous injection of 20 mg/kg body weight SU5416.
Background: In western blotting, separated proteins are transferred to a membrane and probed.

Another assay deals with BMPR2. Kind of assay: Relative BMPR2 mRNA expression in PAECs (qPCR). Format: cell-based, human. The settings on record: PAEC, 24 hours, low doses (5-15 uM), FIG. 14. How it is done:
as §1, §2, §3

Regarding `Cn1cc(C2=C(c3cn(C4CCN(Cc5ccccn5)CC4)c4ccccc34)C(=O)NC2=O)c2ccccc21` [Enzastaurin, 3-(1-methyl-1H-indol-3-yl)-4-[1-[1-(pyridin-2-ylmethyl)piperidin-4-yl]-1H-indol-3-yl]-1H-pyrrole-2,5-dione], the “siFHIT-mediated increase in miR27a expression” value in the assay on miR27a is reported as “inhibited”. Besides, the “FHIT expression at low doses in vitro” value in the assay on FHIT is on record as “increased”. Further, in the assay with PKC, the “PKC activation as measured by its phosphorylation” value was “did not observe a significant decrease”. In addition, in the assay with BMPR2, the “BMPR2 expression at low doses in vitro” value is “increased”.
